Assay results reported in patent publication US11787805B2, “N-oxide inhibitors of NLRP3 inflammasome” (BioAge Labs, Inc., priority 2022, dated 2023).

Assay: Human Liver Microsome Stability Assay (HLM)
Type: in vitro ADME
Conditions: for half-life: human, liver microsomes, read-out: HLM t1/2
Description: The stability of the N-oxide compounds provided herein was studied compared to analogs not having N-oxide. […] This enhanced metabolic stability corresponds to an extended half-life and duration of action when dosed in vivo.

Row | Structure (SMILES) | half-life | HLM t1/2 (human liver microsomes)
1 | CN(Cc1cccc2cn[nH]c12)C(=O)c1ccc(-c2cccc(F)c2)c(OC2CC2)c1 [D] | 1.5 min | –
2 | CCOc1cc(C(=O)N(C)Cc2cncc3cn[nH]c23)ccc1-c1cccc(F)c1 [A] | – | 3.7 min
3 | CN(Cc1cncc2cn[nH]c12)C(=O)c1ccc(-c2cccc(F)c2)c(OC2CC2)c1 [C] | 4 min | –
4 | CCOc1cc(C(=O)N(C)Cc2cncc3cn[nH]c23)ccc1-c1cccc(F)c1 [B] | 2 min | –

Next, values leading:

Row | half-life | HLM t1/2 (human liver microsomes) | Structure (SMILES)
5 | > 145 min | – | CN(Cc1c[n+]([O-])cc2cn[nH]c12)C(=O)c1ccc(-c2cccc(F)c2)c(OC2CC2)c1 [Compound 004]
6 | > 145 min | – | CCOc1cc(C(=O)N(C)Cc2c[n+]([O-])cc3cn[nH]c23)ccc1-c1cccc(F)c1 [Compound 001]
